Patent publication US10450610B2, “Single nucleotide polymorphisms (SNP) and association with resistance to immune tolerance induction” (University of Tennessee Research Foundation, priority 2008, dated 2019)
Several values for one entry are separate records, joined by “and”; a condition that tells them apart may be missing. Identical values can stand only once.

Key:
[1] = test system: BALB/c mice and DBA/1 lac J mice; test: Effect of commonly used immunomodulatory drugs on oral tolerance induction (oral OVA or oral bovine CII); format: in vivo; conditions: for effect on tolerance induction: oral OVA in BALB/c mice and oral bovine CII in DBA/1 lac J mice; for OT induction to CII: DBA/1 lac J mice, prednisone at 10 mg/day equivalent
Experimental: Further, studies were conducted using oral OVA (1 mg/day×5 days) in BALB/c mice and oral bovine CII (10 μg×8 doses over 14 days) in DBA/1 lac J mice to test the effects of commonly used immunomodulatory drugs on immune induction ([…], hydroxychloroquine 400 mg/day, methotrexate 17.5 mg/week, leflunomide 20 mg/day after 100 mg/day×3 loading doses, sulfasalazine 2.5 gm/day, D-penicillamine 750 mg/day, IM gold, and etanercept 25 mg twice weekly).

[2] = test system: spleen cells; test: COX-2 inhibitor SC′236 and oral tolerance induction; spleen cell IFNγ with α1(II) CB mixture (ELISA); format: in vivo, mice; conditions: for oral tolerance induction to CII: DBA/1 mice, assessed by IFNγ production by spleen cells
Experimental: Groups of 8 mice each were gavaged on MTTHF×2 weeks in the a.m. with PBS or SC′236 (5 μg/gm in 100 μl PBS). SC′236 (Searle) is ˜2000× more inhibitory for COX-2 than for COX-1.
Four of the mice given PBS in the a.m. and 4 mice given SC′236 in the a.m. were gavaged in the p.m. with 10 μg bovine type II collagen (CII). The other 4 mice in the a.m. PBS and a.m. SC′236 group were gavaged in the p.m. with 0.1M acetic acid (HAc) the vehicle the CII was dissolved in. After these 8 day feedings, all mice were rested for 1 week and then immunized with 100 μg of CII in complete Freund's adjuvant. After 10 days, all mice were sacrificed, and spleen cells (2×10^6/ml) were isolated and set up in culture with PBS and bovine α1(II) (50 μg/ml) CB mixture. After 4 days culture, the supernatants were harvested and IFNγ levels determined by ELISA (Endogen). Since the PBS+spleen cell culture from all mice produced between 1-12 pg/ml IFNγ, only the α1(II) data are plotted. All groups were compared to Placebo control group by Student's 2 sample t test.

[3] = test system: DBA/1 mice; test: NSAID inhibition of oral tolerance induction to collagen II; arthritic joints scored; format: in vivo
Experimental: To determine whether tolerance induction to orally fed bovine CII in DBA/1 mice would be abrogated by orally fed NSAID, 3 groups of 20-22 DBA/1 mice were fed (by gavage) eight doses (Monday, Tuesday, Thursday, and Friday for 2 weeks) of the following: Placebo (saline) in the a.m. and Placebo (0.1 M HAc) in the p.m.; Placebo (saline) in the a.m. and 10 μg native bovine CII in the p.m.; or piroxicam (2.4 μg/gm) in the a.m. and native bovine CII (10 μg) in the p.m. After 1 week, all mice were immunized (intradermally at the base of tail) with 100 μg of bovine CII emulsified in complete Freund's adjuvant. Animals were placed in coded cages and were scored by a blinded observer twice weekly for the number of arthritic joints (joints swollen, red, and/or deformed).

[4] = test system: DBA/1 Lac mice; test: Low dose oral collagen II tolerance induction; arthritis after CII/CFA immunization; format: in vivo; conditions: 8 times over 2 weeks, FIG. 6
Experimental: Groups of 12 mice were fed oral CII at the doses indicated 8 times over 2 weeks […]. After 4 days rest, the mice were then immunized at the base of the tail with 100 μg CII emulsified with complete Freund's adjuvant. The degree of arthritis was assessed by a blinded observer for 8 weeks.
The percent of mice with grade 3 or 4 arthritis is indicated on the Y-axis. The biphasis response is due to induction of different tolerance mechanisms by low dose vs high dose CII. Low dose CII (10μg) induces regulatory T cells while high dose (500 μg) induces anergy or clonal deletion.

[5] = test system: spleen cells; test: IFNγ production by spleen cells of fed, CII-immunized mice cultured with α1(II) CB peptide mixture (ELISA); format: in vivo; conditions: fed with Placebo (alone); FIG. 8
Source text: To assess the effect of oral feeding of piroxicam to another group of mice fed Placebo or CII on spleen cell IFNγ production in a manner similar to the experiment in FIG. 7, four groups of mice (4 mice per group) were gavaged 8 days over 2 weeks with the following: Piroxicam a.m.—CII p.m.; Piroxicam a.m.—HAc p.m.; Saline a.m.—CII p.m.; or Saline a.m.—HAc p.m. After 1 week rest, all mice were immunized at the base of the tail with a CII—complete Freund's adjuvant emulsion. After 14 days, mice ere sacrificed, and spleen cells were isolated and set up in culture with PBS or α1(II)CB peptide mixture. After 72 h culture, harvested supernatants ere analyzed for IFNγ levels by ELISA.

[6] = test system: mesenteric lymph node cells; test: Mesenteric lymph node cell proliferation with α1(II) CB peptide mixture; format: in vivo, mice; conditions: mice fed either CII or piroxicam alone; FIG. 12
[7] = test system: PBMC; test: Oral collagen II in RA patients; IFNγ production (stimulation index) by PBMC cultured with α1(II); format: in vivo, human; conditions: for non-responders to oral CII: FIG. 13
Experimental: Immunological tolerance, defined as a ≥30% reduction in IFN-γ production by PBMC cultured with α1(II) of type II collagen, was examined in patients. Patients that were taking disease-modifying antirheumatic drugs, anti-TNF agents and/or non steroidal inflammatories were administered misoprostol 100 μg bid to reverse the non steroidal antiinflammatory inhibition of oral tolerance. Patients were randomized to receive “low” or “high” doses of CII. The Low Dose group (n=38) took daily 30 μg/day bovine CII for 10 weeks, then 50 μg/day for 10 weeks and then 70 μg/day for 10 weeks. The High Dose group (n=41) took 90 μg/day for 10 weeks, 110 μg/day for 10 weeks and then 130 μg/day for 10 weeks.
Heparinized blood was obtained at baseline and after each of the 10 week treatment periods. The blood was diluted 1:3 with RPMI 1640 containing penicillin (100 u/ml) and streptomycin (100 μg/ml) within 1-4 hours after collection, wrapped in paper, and placed in a styrofoam box containing a “cold pack” and shipped overnight. The PBMC were isolated from the blood samples and set up in culture with bovine α1(II) 25 μg/ml, PHA 10 μg/ml or with 50 ul PBS. After 6 days in culture, cell free supernatants were collected and stored at −70° for up to 7 months at which time all samples from a given patient were assayed for IFNγ by commercial ELISA (R & D Systems). The results are shown as in FIG. 13.
The IFNγ stimulation index (SI) was calculated as
[formula] The SI for patients receiving each of the low doses (30 μg, 50 μg and 70 μg/day) was compared with their SI at baseline before each of the 10 week treatments and similarly with the high dose CII group (90 μg, 110 μg and 130 μg/day) with their SI at baseline before each of the 10 week treatments.
SNP analysis was performed of 16 responders and 8 non-responders to oral CII to find the frequency of SNPs closely associated on chromosomes next to several cytokines and chemokines known to be important for oral tolerance induction. The 16 patients were those with had ≥50% reduction in IFNγ α1 stimulation index from baseline to either the 30 μg/day, 50 μg/day, 110 μg/day or 130 μg/day dose of CII (“OT Responders”). The 8 patients with increases in IFNγ α1 S.I. at the 30 μg/day, 50 μg/day, 110 μg/day or 130 μg/day doses of oral CII were selected (“OT Non-Responders”).

[8] = individual RA patients, No SNP A-1515737 AA genotype
[9] = individual RA patients, SNP A-1515737 AA genotype

Molecule: CC(C)(S)[C@@H](N)C(=O)O [D-penicillamine]
- effect on tolerance induction [1]: did not completely suppress tolerance

Molecule: NS(=O)(=O)c1ccc(-n2nc(C(F)(F)F)cc2-c2ccc(Cl)cc2)cc1 [SC′236]
- oral tolerance induction to CII ([2]; listed as SC236): blocked oral tolerance induction
- oral tolerance induction to CII ([2]; listed as SC'236): abrogates oral tolerance induction
- IFNγ production by spleen cells stimulated by α1(II) CB digest ([2]; SC′236 5 μg/gm fed alone, FIG. 9): lower IFNγ production
- IFNγ production by spleen cells cultured with α1(II) CB digest ([2]; SC′236 + CII fed, p<0.01, FIG. 9): significant increase

Molecule: CC(=O)OC[C@H]1O[C@@H]([S-])[C@H](OC(C)=O)[C@@H](OC(C)=O)[C@@H]1OC(C)=O.CCP(CC)CC.[Au+] [auranofin]
- OT induction to CII [1]: did block OT induction to CII

Molecule: CCN(CCO)CCCC(C)Nc1ccnc2cc(Cl)ccc12 (centres unmarked) [hydroxychloroquine]
- effect on tolerance induction [1]: did not completely suppress tolerance

Molecule: Cc1oncc1C(=O)Nc1ccc(C(F)(F)F)cc1 [leflunomide]
- effect on tolerance induction [1]: did not completely suppress tolerance

Molecule: CN(Cc1cnc2nc(N)nc(N)c2n1)c1ccc(C(=O)N[C@@H](CCC(=O)O)C(=O)O)cc1 [methotrexate]
- effect on tolerance induction [1]: did not completely suppress tolerance

Molecule: COc1ccc2cc(CCC(C)=O)ccc2c1 [nabumatone]
- oral tolerance (OT) induction ([3]; DBA/1 mice fed CII, FIG. 7 / similar studies (data not shown)): abrogated OT induction

Molecule: C[C@]12C=CC(=O)C=C1CC[C@@H]1[C@@H]2C(=O)C[C@@]2(C)[C@H]1CC[C@]2(O)C(=O)CO [prednisone]
- OT induction to CII [1]: did block OT induction to CII
- effect on tolerance induction [1]: did not completely suppress tolerance

Molecule: O=C(O)c1cc(/N=N/c2ccc(S(=O)(=O)Nc3ccccn3)cc2)ccc1O [sulfasalazine]
- effect on tolerance induction [1]: did not completely suppress tolerance

Molecule: bovine type II collagen [CII]
- incidence of arthritis (percent of mice with grade 3 or 4 arthritis) ([4]; 10 μg/day oral CII): most effective in reducing the incidence of arthritis
- incidence of arthritis (percent of mice with grade 3 or 4 arthritis) ([4]; 500 μg/day oral CII): also, but less, effective
- percent of arthritic joints ([3]; Placebo+CII (10 μg, eight doses) vs Placebo+Placebo fed controls, p<0.03, FIG. 7): less
- IFNγ production by spleen cells cultured with α1(II) CB peptide mixture [5]: reduced production of IFNγ
- IFNγ production by spleen cells stimulated by α1(II) CB digest ([2]; CII 10 μg fed, vs Placebo control, p<0.025, FIG. 9): significant reduction
- proliferation in response to α1(II) CB peptide mixture [6]: did not proliferate
- suppression of IFNγ production (dose response) ([7]; 30 μg, 50 μg and 110 μg/day of oral CII): maximal suppression
- IFNγ SI ([7]; 70 μg and 90 μg/day doses): did not reduce
- IFNγ SI compared to baseline values ([7]; 70 μg/day dose): significantly increased
- patients with a 50% reduction in α1(II) stimulated IFNγ production ([7]; 30, 50 and 110 μg/day oral CII): 69%
- non-responders to oral CII ([7]; 30-50 μg/day dose): 30%
- non-responders to oral CII ([7]; 110-130 μg/day dose): 28%
- number of CII OT Non-Responder patients ([7]; AA genotype): 7
- number of CII OT Responder patients ([7]; AA genotype): 1
- number of CII OT Non-Responder patients ([7]; Non-AA genotype): 2
- number of CII OT Responder patients ([7]; Non-AA genotype): 15
- Ratio: After/baseline (IFNγ α1(II) SI) ([7]; group mean, No SNP A-1515737 AA genotype): 0.427 ± 0.217
- α1(II) SI After Oral CII ([7]; group mean, No SNP A-1515737 AA genotype (17 patients)): 175 ± 46
- Ratio: After/baseline (IFNγ α1(II) SI) ([7]; group mean, SNP A-1515737 AA genotype): 3.512 ± 1.347
- α1(II) SI After Oral CII ([7]; group mean, SNP A-1515737 AA genotype (7 patients)): 613 ± 256
- OT Responder [7, 8]: Yes (15×) and No (2×)
- Ratio: After/baseline (IFNγ α1(II) SI) [7, 8]: 0.4932 and 1.9178 and 2.9064 and 0.0573 and 0.1034 and 0.4119 and 0.0789 and 0.0694 and 0.0631 and 0 and 0.0018 and 0.0176 and 0.3520 and 0.0423 and 0.2454 and 0.0030 and 0.1008
- α1(II) SI After Oral CII ([7]; individual RA patients, No SNP A-1515737 AA genotype, 30, 50 or 110 μg/day for 10 weeks): 360 and 280 and 590 and 152 and 6 and 276 and 18 (2×) and 503 and 19 and 0 and 3 and 7 and 358 and 93 and 540 and 246
- OT Responder [7, 9]: No (6×) and Yes
- Ratio: After/baseline (IFNγ α1(II) SI) [7, 9]: 2.3774 and 5.0500 and 2.9778 and 10.8021 and 0.0040 and 1.3688 and 2.0050
- α1(II) SI After Oral CII ([7]; individual RA patients, SNP A-1515737 AA genotype, 30, 50 or 110 μg/day for 10 weeks): 630 and 404 and 268 and 2020 and 3 and 167 and 800
- oral tolerance to CII (reduced immune response to fed antigen) ([7]; patients taking DMARDs, anti-TNF agents and NSAIDS, low dose misoprostol given): can be induced
- IFNγ α1(II) S.I. after oral CII treatment ([7]; patients who carried SNP A-1515737 AA, p=0.230): no significant change
- IFNγ α1(II) S.I. after oral CII compared to baseline values ([7]; patients without SNP A-1515737 AA (ROT1 AA) genotype, p<0.001): significant reduction
- IFNγ SI ([7]; ten weeks treatment with 30, 50, 110 and 130 μg/day oral CII, vs baseline): marked suppression

Molecule: etanercept
- effect on tolerance induction [1]: did not completely suppress tolerance
